Read-outs that look alike come from different tables or passages of the source.
Assays:
pY705-STAT3 in PBMC = biological target: T1, pY705-STAT3 in PBMC (Homo sapiens, UniProt P40763); assay: MSD-pSTAT-PBMC Assay (pSTAT3, IL-6 stimulated); type: cell-based; conditions: compound 3 hrs, then 10 ng/mL IL-6 for 10 min
T1 construct: Cryopreserved Peripheral Blood Mononuclear Cells (PBMC) are from AllCells; host or cells: cryopreserved PBMC
Method in brief: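 Thawed human PBMC rested overnight in IMDM/10% FBS, then got compound for 3 hrs before a 10 min cytokine pulse: 1 ng/mL IL-4 for pSTAT6, 10 ng/mL IL-6 for pSTAT3. Lysates went to MSD sandwich capture on total STAT6 or STAT3 with phospho-specific detection. IC50 came from background-subtracted, DMSO-normalized signal.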

pY641-STAT6 in PBMC = biological target: T2, pY641-STAT6 in PBMC (Homo sapiens, UniProt P42226); assay: MSD-pSTAT-PBMC Assay (pSTAT6, IL-4 stimulated); type: cell-based; conditions: compound 3 hrs, then 1 ng/mL IL-4 for 10 min
T2 construct: Cryopreserved Peripheral Blood Mononuclear Cells (PBMC) are from AllCells; host or cells: cryopreserved PBMC
T2 sequence (P42226 1-847): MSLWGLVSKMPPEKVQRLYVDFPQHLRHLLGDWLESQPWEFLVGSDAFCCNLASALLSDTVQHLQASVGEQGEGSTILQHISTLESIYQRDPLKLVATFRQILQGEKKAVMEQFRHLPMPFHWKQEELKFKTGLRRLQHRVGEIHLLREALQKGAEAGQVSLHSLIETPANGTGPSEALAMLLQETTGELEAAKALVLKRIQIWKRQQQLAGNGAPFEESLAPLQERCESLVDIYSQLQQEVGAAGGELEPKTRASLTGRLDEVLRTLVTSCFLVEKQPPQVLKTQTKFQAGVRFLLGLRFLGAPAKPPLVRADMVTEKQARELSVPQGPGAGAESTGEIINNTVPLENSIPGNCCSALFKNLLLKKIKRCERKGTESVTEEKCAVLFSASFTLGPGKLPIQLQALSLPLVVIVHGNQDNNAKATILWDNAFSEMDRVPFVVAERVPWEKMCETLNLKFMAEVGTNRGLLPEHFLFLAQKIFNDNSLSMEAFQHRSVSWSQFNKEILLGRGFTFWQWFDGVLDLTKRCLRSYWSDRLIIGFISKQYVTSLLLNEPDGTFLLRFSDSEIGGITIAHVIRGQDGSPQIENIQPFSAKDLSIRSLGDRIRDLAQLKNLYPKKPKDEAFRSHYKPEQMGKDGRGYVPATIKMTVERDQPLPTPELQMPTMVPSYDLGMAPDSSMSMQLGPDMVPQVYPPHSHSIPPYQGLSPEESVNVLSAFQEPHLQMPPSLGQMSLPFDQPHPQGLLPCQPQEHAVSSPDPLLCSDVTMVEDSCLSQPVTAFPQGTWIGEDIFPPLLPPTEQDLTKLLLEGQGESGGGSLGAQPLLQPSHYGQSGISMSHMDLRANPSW
Method in brief: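 Inhibition of cytokine-induced STAT phosphorylation was measured in recovered human PBMC after 3 hrs compound exposure and a 10 min IL-4 (1 ng/mL) or IL-6 (10 ng/mL) challenge. MSD detection of pY641-STAT6 or pY705-STAT3 yielded IC50 values.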

[1] = PBMC, Table 115, read-out: STAT3
[2] = PBMC, Table 115, read-out: STAT6
[3] = PBMC, Table 1114, read-out: pSTAT3
[4] = PBMC, Table 1114, read-out: pSTAT6

T1 sequence (P40763 whole entry): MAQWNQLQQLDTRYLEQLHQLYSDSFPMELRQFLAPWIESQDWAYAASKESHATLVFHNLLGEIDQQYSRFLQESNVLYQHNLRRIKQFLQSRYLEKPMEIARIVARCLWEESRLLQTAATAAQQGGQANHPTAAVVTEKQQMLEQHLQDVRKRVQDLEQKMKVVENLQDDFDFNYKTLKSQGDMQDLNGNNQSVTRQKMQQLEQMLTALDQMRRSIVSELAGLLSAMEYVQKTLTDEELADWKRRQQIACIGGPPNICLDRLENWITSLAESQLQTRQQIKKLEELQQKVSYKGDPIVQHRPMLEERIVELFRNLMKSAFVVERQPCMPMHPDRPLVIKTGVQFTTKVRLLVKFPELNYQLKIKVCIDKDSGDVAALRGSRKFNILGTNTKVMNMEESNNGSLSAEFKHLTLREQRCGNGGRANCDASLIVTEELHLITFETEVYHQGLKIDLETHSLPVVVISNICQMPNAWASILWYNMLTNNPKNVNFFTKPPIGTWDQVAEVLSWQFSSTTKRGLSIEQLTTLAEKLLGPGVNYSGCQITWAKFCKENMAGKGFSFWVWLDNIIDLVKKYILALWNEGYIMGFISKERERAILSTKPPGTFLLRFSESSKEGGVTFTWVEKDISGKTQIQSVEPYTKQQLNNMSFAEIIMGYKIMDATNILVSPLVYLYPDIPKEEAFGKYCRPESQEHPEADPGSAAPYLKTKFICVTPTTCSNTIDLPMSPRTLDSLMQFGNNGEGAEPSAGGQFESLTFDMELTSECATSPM

IC50 (pY705-STAT3 in PBMC; [3]) [nM]	Structure (SMILES)	IC50 (pY705-STAT3 in PBMC; [1]) [nM]	IC50 (pY641-STAT6 in PBMC; STAT6, PBMC, Table 115) [nM]	further results
	CC(C)(C)C(=O)OCOP(=O)(OCOC(=O)C(C)(C)C)C(F)(F)c1ccc2sc(C(=O)N[C@H]3CCCC4CC[C@@H](C(=O)N5CC(N6CCOCC6)C5)N4C3=O)cc2c1 (stereo partly drawn) [Compound 249, (((difluoro(2-(((3S,6S)-3-(3-morpholinoazetidine-1-carbonyl)-5-oxooctahydro-1H-pyrrolo[1,2-a]azepin-6-yl)carbamoyl)benzo [b]thiophen-5-yl)methyl)phosphoryl)bis(oxy))bis (methylene) bis(2,2-dimethylpropanoate)]	< 100		IC50 (pY641-STAT6 in PBMC; [2]): 100 to 1000 nM
100 to 1000	CC(C)(C)C(=O)OCOP(=O)(OCOC(=O)C(C)(C)C)C(F)(F)c1ccc2sc(C(=O)N[C@H]3CCC[C@H]4CCC[C@@H](C(=O)N5CC(n6ccnc6)C5)N4C3=O)cc2c1 [Compound 173, ((((2-(((4S,7S,10aS)-4-(3-(1H-imidazol-1-yl)azetidine-1-carbonyl)-6-oxodecahydropyrido [1,2-a]azepin-7-yl)carbamoyl)benzo[b]thiophen-5-yl)difluoromethyl)phosphoryl)bis(oxy)) bis(methylene) bis(2,2-dimethylpropanoate)]			IC50 (pY641-STAT6 in PBMC; [4]): > 3000 nM
	CCCOC(=O)[C@H](C)NP(=O)(Oc1ccccc1)C(F)c1ccc2sc(C(=O)N[C@H]3CCC[C@H]4CC[C@@H](C(=O)N5CC(c6cnccc6F)C5)N4C3=O)cc2c1 (stereo partly drawn) [Compound 943, propyl ((fluoro(2-(((3S,6S,9aS)-3-(3-(4-fluoropyridin-3-yl)azetidine-1-carbonyl)-5-oxooctahydro-1H-pyrrolo[1,2-a]azepin-6-yl)carbamoyl)benzo [b]thiophen-5-yl)methyl)(phenoxy)phosphoryl)-L-alaninate]	< 100	> 3000	
> 3000	CC(C)CC(=O)SCCOP(=O)(OCCSC(=O)CC(C)C)C(F)(F)c1ccc2ccc(C(=O)N[C@H]3CCCCC[C@H]4[C@H](O)C[C@@H](C(=O)N5CC(C#N)C(c6cc[nH]c(=O)c6)C5)N4C3=O)cc2c1 (single isomer, unassigned) [Compound 167, S,S′-(((((7-(((1R,3S,6S,11aS)-3-((3S,4R or 3R,4S)-3-cyano-4-(2-oxo-1,2-dihydropyridin-4-yl)pyrrolidine-1-carbonyl)-1-hydroxy-5-oxodecahydropyrrolo [1,2-a]azocin-6-yl)carbamoyl)naphthalen-2-yl)difluoromethyl)phosphoryl)bis(oxy))bis(ethane-2,1-diyl)) bis(3-methylbutane thioate)]			IC50 (pY641-STAT6 in PBMC; [4]): 100 to 1000 nM
	CCCOC(=O)[C@H](C)NP(=O)(Oc1ccccc1)[C@H](F)c1ccc2sc(C(=O)N[C@H]3CCCC[C@H]4CC[C@@H](C(=O)N5C[C@H](c6ccccc6)[C@@H](C#N)C56CC6)N4C3=O)cc2c1 (stereo partly drawn) [Compound 485, propyl (((S)-(2-(((3S,6S,10aS)-3-((6S,7R)-7-cyano-6-phenyl-4-azaspiro[2.4]heptane-4-carbonyl)-5-oxodecahydropyrrolo [1,2-a]azocin-6-yl)carbamoyl)benzo [b]thiophen-5-yl)fluoromethyl) (phenoxy)phosphoryl)-L-alaninate]	> 3000	< 100	
	CCCOC(=O)[C@H](C)NP(=O)(Cc1ccc2sc(C(=O)N[C@H]3CCC[C@H]4CC[C@@H](C(=O)N5CC(c6cnccc6F)C5)N4C3=O)cc2c1)Oc1ccccc1 (stereo partly drawn) [Compound 304, propyl (((2-(((3S,6S,9aS)-3-(3-(4-fluoropyridin-3-yl)azetidine-1-carbonyl)-5-oxooctahydro-1H-pyrrolo[1,2-a]azepin-6-yl)carbamoyl)benzo [b]thiophen-5-yl)methyl)(phenoxy)phosphoryl)-L-alaninate]	< 100	> 3000	
1000 to 3000	CC(C)(C)C(=O)SCCOP(=O)(OCCSC(=O)C(C)(C)C)C(F)(F)c1ccc2sc(C(=O)N[C@H]3CCCC[C@H]4CC[C@@H](C(=O)N5C[C@@H](C#N)[C@H](c6ccccc6)C5)N4C3=O)cc2c1 (single isomer, unassigned) [Compound 127, S,S′-(((((2-(((3S,6S,10aS)-3-((3S,4R or 3R,4S)-3-cyano-4-phenylpyrrolidine-1-carbonyl)-5-oxodecahydro-pyrrolo[1,2-a]azocin-6-yl)carbamoyl)benzo[b]thiophen-5-yl)difluoromethyl)phosphoryl)bis(oxy))bis(ethane-2,1-diyl))bis(2,2-dimethylpropane-thioate]			IC50 (pY641-STAT6 in PBMC; [4]): 100 to 1000 nM
	CCCOC(=O)[C@H](C)NP(=O)(Oc1ccccc1)C(F)(F)c1ccc2ccc(C(=O)N[C@H]3CCCC[C@H]4CC[C@@H](C(=O)N5C[C@H](c6cc[nH]c(=O)c6)CC56CC6)N4C3=O)cc2c1 (stereo partly drawn) [Compound 419, propyl ((difluoro(7-(((3S,6S,10aS)-5-oxo-3-((S)-6-(2-oxo-1,2-dihydropyridin-4-yl)-4-azaspiro[2.4]heptane-4-carbonyl)decahydropyrrolo[1,2-a]azocin-6-yl)carbamoyl)naphthalen-2-yl)methyl)(phenoxy)phosphoryl)-L-alaninate]	> 3000	100 to 1000	
	CC(C)CC(=O)SCCOP(=O)(OCOC(=O)OC1CCOCC1)C(F)(F)c1ccc2sc(C(=O)N[C@H]3CCCC[C@H]4CC[C@@H](C(=O)N5C[C@H](c6cc[nH]c(=O)c6)[C@@H](C#N)C5)N4C3=O)cc2c1 (single isomer, unassigned) [Compound 1085]	100 to 1000		IC50 (pY641-STAT6 in PBMC; [2]): < 100 nM
	CCCOC(=O)[C@H](C)NP(=O)(Oc1ccccc1)[C@H](F)c1ccc2sc(C(=O)N[C@H]3CCC[C@H]4CC[C@@H](C(=O)N5C[C@H](c6ccccc6)[C@@H](C#N)C56CC6)N4C3=O)cc2c1 (stereo partly drawn) [Compound 388, propyl (((S)-(2-(((3S,6S,9aS)-3-((6S,7R)-7-cyano-6-phenyl-4-azaspiro[2.4]heptane-4-carbonyl)-5-oxooctahydro-1H-pyrrolo[1,2-a]azepin-6-yl)carbamoyl)benzo [b]thiophen-5-yl)fluoromethyl) (phenoxy)phosphoryl)-L-alaninate]		< 100	IC50 (pY705-STAT3 in PBMC; STAT3, PBMC, Table 115): > 3000 nM
	CCCOC(=O)[C@H](C)NP(=O)(Oc1ccccc1)C(F)(F)c1ccc2ccc(C(=O)N[C@H]3CCCC[C@H]4CC[C@@H](C(=O)N5CC(c6ccccc6)CC56CC6)N4C3=O)cc2c1 (stereo partly drawn) [Compound 403, propyl ((difluoro(7-(((3S,6S,10aS)-5-oxo-3-(6-phenyl-4-azaspiro[2.4]heptane-4-carbonyl)decahydropyrrolo[1,2-a]azocin-6-yl)carbamoyl)naphthalen-2-yl)methyl)(phenoxy)phosphoryl)-L-alaninate]	> 3000	100 to 1000	

Structure (SMILES)	IC50 (pY705-STAT3 in PBMC; [3]) [nM]	IC50 (pY705-STAT3 in PBMC; [1]) [nM]	IC50 (pY641-STAT6 in PBMC; STAT6, PBMC, Table 115) [nM]	further results
CC(C)(C)C(=O)SCCOP(=O)(Oc1ccc(C#N)cc1)C(F)(F)c1ccc2sc(C(=O)N[C@H]3CCCC[C@H]4CC[C@@H](C(=O)N5C[C@@H](C#N)[C@H](c6ccccc6)C5)N4C3=O)cc2c1 (single isomer, unassigned) [Compound 134, S-(2-((((2-(((3S,6S,10aS)-3-((3S,4R or 3R,4S)-3-cyano-4-phenylpyrrolidine-1-carbonyl)-5-oxodecahydro-pyrrolo[1,2-a]azocin-6-yl)carbamoyl)benzo[b]thiophen-5-yl)difluoromethyl)(4-cyanophenoxy)phosphoryl)oxy)ethyl)-2,2-dimethylpropane-thioate]	> 3000			IC50 (pY641-STAT6 in PBMC; pSTAT6, PBMC, Table 1114): 100 to 1000 nM
CC(C)OC(=O)[C@H](C)NP(=O)(Oc1ccccc1)C(F)c1ccc2sc(C(=O)N[C@H]3CCCC[C@H]4CC[C@@H](C(=O)N5C[C@H](c6cc[nH]c(=O)c6)[C@@H](C#N)C5)N4C3=O)cc2c1 (single isomer, unassigned) [Compound 198, isopropyl (((2-(((3S,6S,10aS)-3-((3R,4S or 3S,4R)-3-cyano-4-(2-oxo-1,2-dihydropyridin-4-yl)pyrrolidine-1-carbonyl)-5-oxodecahydro-pyrrolo[1,2-a]azocin-6-yl)carbamoyl)benzo[b]thiophen-5-yl)fluoro-methyl) (phenoxy)phosphoryl)-L-alaninate]	> 3000			IC50 (pY641-STAT6 in PBMC; pSTAT6, PBMC, Table 1114): > 3000 nM

From US20250215029A1 (Recludix Pharma, Inc., priority 2022, published 2025)
